Experiments:
Type in all cases: in vivo
wheat = assay: Test Example 5: effect on crop by foliage application, plastic box (symbol e); conditions: 320 g/ha, 3 weeks after application
Procedure, shortened: (§1)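 Seeds were sown in spots in sterilized diluvial soil held in a plastic box 21 cm × 13 cm × 7 cm deep, covered with about 1.5 cm of soil, and grown in a greenhouse at 25° C. to 30° C.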

rice plant = assay: Test Example 5: effect on crop by foliage application, plastic box (symbol b); conditions: 320 g/ha, 3 weeks after application
Procedure, shortened: as §1

rapeseed = assay: Test Example 4: effect on crop by soil treatment (symbol g)
Procedure, shortened: (§2)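 The test used sterilized diluvial soil. Seed was set down in spots and overlaid with about 1.5 cm of soil before growth in a greenhouse kept at 25° C. to 30° C.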

[1] = test system: Echinochloa oryzacola Vasing.; assay: Test Example 1: herbicidal activity, application before weed generation in submerged conditions (symbol A); conditions: application herbicide amount 320 g/ha
Procedure, shortened: (§3)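 Compound emulsion was diluted to a set herbicide amount and applied to the water surface on the sowing day, into submerged (4 cm) alluvial-soil pots sown with mixed weed seeds and transplanted 2.5-leaf rice. Pots were held in a 25–30 °C greenhouse, and weeds were scored 0–5 by herbicidal ratio after 3 weeks.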

Monochoria vaginalis = assay: Test Example 2: herbicidal activity, application during weed generation in submerged conditions (symbol C); conditions: Table 23; application herbicide amount 320 g/ha; grade 0-5 by criteria of Test Example 1
Procedure, shortened: (§4)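 Alluvial soil in pots was flooded to a 4 cm water depth and sown with a mix of the three weed species, then grown in a greenhouse at 25° C. to 30° C. At the one- to two-leaf stage, an emulsifiable formulation diluted in water to a set dose was applied to the water surface. Effects were scored visually 3 weeks later.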

Avena fatua = assay: Test Example 5: herbicidal effect by foliage application, plastic box (symbol I); conditions: 320 g/ha, 3 weeks after application
Procedure, shortened: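 Sowing in sterilized diluvial soil, 14 days' greenhouse growth at 25° C. to 30° C., then uniform small-sprayer foliar application of aqueous emulsion dilution; plants scored three weeks afterwards.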

Scirpus juncoides [2] = assay: Test Example 1: herbicidal activity, application before weed generation in submerged conditions (symbol B); conditions: application herbicide amount 320 g/ha
Procedure, shortened: as §3

[3] = test system: Echinochloa crus-galli var. crus-galli; assay: Test Example 3: herbicidal effect by foliage application, Wagner pot (symbol H); conditions: application herbicide amount 320 g/ha
Procedure, shortened: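 Weeds and rice were sown in alluvial soil under 0.1–0.5 cm of standing water and grown for 14 days in a 25–30 °C greenhouse. An emulsion of the compound, diluted in water to a set dose, was sprayed evenly onto the foliage. Effect was scored against fixed criteria 3 weeks after treatment.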

Scirpus juncoides [4] = assay: Test Example 2: herbicidal activity, application during weed generation in submerged conditions (symbol B); conditions: Table 23; application herbicide amount 320 g/ha; grade 0-5 by criteria of Test Example 1
Procedure, shortened: as §4

soybean [5] = assay: Test Example 5: effect on crop by foliage application, plastic box (symbol d); conditions: 320 g/ha, 3 weeks after application
Procedure, shortened: as §1

Amaranthus retroflexus = assay: Test Example 4: herbicidal effect by soil treatment (symbol N)
Procedure, shortened: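 Seeds were sown in sterilized diluvial soil, covered with about 1.5 cm of soil, and the soil surface was sprayed with a water-diluted emulsion of the compound at a predetermined rate. Plants grew in a greenhouse at 25° C. to 30° C.; effects were scored visually 3 weeks after application.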

soybean [6] = assay: Test Example 4: effect on crop by soil treatment (symbol d)
Procedure, shortened: as §2

[7] = application herbicide amount 320 g/ha

Structure (SMILES): CON=C(C)CC1CC(OC(=O)COc2ccccc2OC)=C(c2c(C)cc(C)cc2C)C1=O (stereo not drawn) [1-067]
- e: wheat, effect on crop grade (wheat): 5 (Herbicidal ratio of 90% or more (almost completely withered))
- b: directly sowed rice plant, effect on crop grade (rice plant): 5 (Herbicidal ratio of 90% or more (almost completely withered))
- g (rapeseed) effect on crop grade (rapeseed; [7]): 4 (Herbicidal ratio of 70% or higher and lower than 90%)
- Herbicidal effect grade, A: Echinochloa oryzacola Vasing. [1]: 5 (Herbicidal ratio of 90% or more (almost completely withered))
- Herbicidal effect grade, C: Monochoria vaginalis (Monochoria vaginalis): 2 (Herbicidal ratio of 20% or higher and lower than 40%)
- I: Avena fatua, herbicidal effect grade (Avena fatua): 5 (Herbicidal ratio of 90% or more (almost completely withered))
- Herbicidal effect grade, B: Scirpus juncoides (Scirpus juncoides [2]): 5 (Herbicidal ratio of 90% or more (almost completely withered))
- herbicidal effect on H (Echinochloa crus-galli var. crus-galli), grade 0-5 [3]: 5 (Herbicidal ratio of 90% or more (almost completely withered))
- Herbicidal effect grade, B: Scirpus juncoides (Scirpus juncoides [4]): 4 (Herbicidal ratio of 70% or higher and lower than 90%)
- d: soybean, effect on crop grade (soybean [5]): 4 (Herbicidal ratio of 70% or higher and lower than 90%)
- N (Amaranthus retroflexus) herbicidal effect grade (Amaranthus retroflexus; [7]): 5 (Herbicidal ratio of 90% or more (almost completely withered))
- d (soybean) effect on crop grade (soybean [6]; [7]): 0 (Herbicidal ratio of 5% or lower (almost no effect))

Structure (SMILES): CON=C(CC1CC(O)=C(c2c(C)cc(C)cc2C)C1=O)C1CCCC1 (stereo not drawn) [1-078]
- e: wheat, effect on crop (criteria 0-5) (wheat): 0 (Herbicidal ratio of 5% or lower (almost no effect))
- b: directly sowed rice plant, effect on crop (criteria 0-5) (rice plant): 5 (Herbicidal ratio of 90% or more (almost completely withered))
- g: rapeseed, effect grade on crop (rapeseed; 320 g/ha): 1 (Herbicidal ratio of 5% or higher and lower than 20%)
- Herbicidal effect grade, A: Echinochloa oryzacola Vasing. [1]: 5 (Herbicidal ratio of 90% or more (almost completely withered))
- Herbicidal effect grade, C: Monochoria vaginalis (Monochoria vaginalis): 0 (Herbicidal ratio of 5% or lower (almost no effect))
- I: Avena fatua, herbicidal effect (criteria 0-5) (Avena fatua): 1 (Herbicidal ratio of 5% or higher and lower than 20%)
- Herbicidal effect grade, B: Scirpus juncoides (Scirpus juncoides [2]): 2 (Herbicidal ratio of 20% or higher and lower than 40%)
- herbicidal effect on H (Echinochloa crus-galli var. crus-galli), grade 0-5 [3]: 5 (Herbicidal ratio of 90% or more (almost completely withered))
- Herbicidal effect grade, B: Scirpus juncoides (Scirpus juncoides [4]): 0 (Herbicidal ratio of 5% or lower (almost no effect))
- d: soybean, effect on crop (criteria 0-5) (soybean [5]): 0 (Herbicidal ratio of 5% or lower (almost no effect))
- N: Amaranthus retroflexus, herbicidal effect grade (Amaranthus retroflexus; 320 g/ha): 0 (Herbicidal ratio of 5% or lower (almost no effect))
- d: soybean, effect grade on crop (soybean [6]; 320 g/ha): 0 (Herbicidal ratio of 5% or lower (almost no effect))

Structure (SMILES): CCC(CC1CC(O)=C(c2c(C)cc(C)cc2C)C1=O)=NOC (stereo not drawn) [1-038]
- e: wheat, effect on crop grade (wheat): 4 (Herbicidal ratio of 70% or higher and lower than 90%)
- b: directly sowed rice plant, effect on crop grade (rice plant): 5 (Herbicidal ratio of 90% or more (almost completely withered))
- g (rapeseed) effect on crop grade (rapeseed; [7]): 4 (Herbicidal ratio of 70% or higher and lower than 90%)
- Herbicidal effect grade, A: Echinochloa oryzacola Vasing. [1]: 5 (Herbicidal ratio of 90% or more (almost completely withered))
- Herbicidal effect grade, C: Monochoria vaginalis (Monochoria vaginalis): 4 (Herbicidal ratio of 70% or higher and lower than 90%)
- I: Avena fatua, herbicidal effect grade (Avena fatua): 5 (Herbicidal ratio of 90% or more (almost completely withered))
- Herbicidal effect grade, B: Scirpus juncoides (Scirpus juncoides [2]): 5 (Herbicidal ratio of 90% or more (almost completely withered))
- herbicidal effect on H (Echinochloa crus-galli var. crus-galli), grade 0-5 [3]: 5 (Herbicidal ratio of 90% or more (almost completely withered))
- Herbicidal effect grade, B: Scirpus juncoides (Scirpus juncoides [4]): 5 (Herbicidal ratio of 90% or more (almost completely withered))
- d: soybean, effect on crop grade (soybean [5]): 4 (Herbicidal ratio of 70% or higher and lower than 90%)
- N (Amaranthus retroflexus) herbicidal effect grade (Amaranthus retroflexus; [7]): 3 (Herbicidal ratio of 40% or higher and lower than 70%)
- d (soybean) effect on crop grade (soybean [6]; [7]): 1 (Herbicidal ratio of 5% or higher and lower than 20%)

Structure (SMILES): CON=C(C)CC1CC(OCC#C[Si](C)(C)C)=C(c2c(C)cc(C)cc2C)C1=O (stereo not drawn) [1-031]
- e: wheat, effect on crop grade (wheat): 0 (Herbicidal ratio of 5% or lower (almost no effect))
- b: directly sowed rice plant, effect on crop grade (rice plant): 3 (Herbicidal ratio of 40% or higher and lower than 70%)
- g (rapeseed) effect on crop grade (rapeseed; [7]): 3 (Herbicidal ratio of 40% or higher and lower than 70%)
- Herbicidal effect grade, A: Echinochloa oryzacola Vasing. [1]: 5 (Herbicidal ratio of 90% or more (almost completely withered))
- Herbicidal effect grade, C: Monochoria vaginalis (Monochoria vaginalis): 0 (Herbicidal ratio of 5% or lower (almost no effect))
- I: Avena fatua, herbicidal effect grade (Avena fatua): 3 (Herbicidal ratio of 40% or higher and lower than 70%)
- Herbicidal effect grade, B: Scirpus juncoides (Scirpus juncoides [2]): 4 (Herbicidal ratio of 70% or higher and lower than 90%)
- herbicidal effect on H (Echinochloa crus-galli var. crus-galli), grade 0-5 [3]: 3 (Herbicidal ratio of 40% or higher and lower than 70%)
- Herbicidal effect grade, B: Scirpus juncoides (Scirpus juncoides [4]): 2 (Herbicidal ratio of 20% or higher and lower than 40%)
- d: soybean, effect on crop grade (soybean [5]): 0 (Herbicidal ratio of 5% or lower (almost no effect))
- N (Amaranthus retroflexus) herbicidal effect grade (Amaranthus retroflexus; [7]): 0 (Herbicidal ratio of 5% or lower (almost no effect))
- d (soybean) effect on crop grade (soybean [6]; [7]): 0 (Herbicidal ratio of 5% or lower (almost no effect))

Structure (SMILES): COCC(CC1CC(O)=C(c2c(C)cc(C)cc2C)C1=O)=NOC (stereo not drawn) [1-040]
- e: wheat, effect on crop grade (wheat): 0 (Herbicidal ratio of 5% or lower (almost no effect))
- b: directly sowed rice plant, effect on crop grade (rice plant): 5 (Herbicidal ratio of 90% or more (almost completely withered))
- g (rapeseed) effect on crop grade (rapeseed; [7]): 3 (Herbicidal ratio of 40% or higher and lower than 70%)
- Herbicidal effect grade, A: Echinochloa oryzacola Vasing. [1]: 3 (Herbicidal ratio of 40% or higher and lower than 70%)
- Herbicidal effect grade, C: Monochoria vaginalis (Monochoria vaginalis): 0 (Herbicidal ratio of 5% or lower (almost no effect))
- I: Avena fatua, herbicidal effect grade (Avena fatua): 4 (Herbicidal ratio of 70% or higher and lower than 90%)
- Herbicidal effect grade, B: Scirpus juncoides (Scirpus juncoides [2]): 2 (Herbicidal ratio of 20% or higher and lower than 40%)
- herbicidal effect on H (Echinochloa crus-galli var. crus-galli), grade 0-5 [3]: 5 (Herbicidal ratio of 90% or more (almost completely withered))
- Herbicidal effect grade, B: Scirpus juncoides (Scirpus juncoides [4]): 0 (Herbicidal ratio of 5% or lower (almost no effect))
- d: soybean, effect on crop grade (soybean [5]): 0 (Herbicidal ratio of 5% or lower (almost no effect))
- N (Amaranthus retroflexus) herbicidal effect grade (Amaranthus retroflexus; [7]): 0 (Herbicidal ratio of 5% or lower (almost no effect))
- d (soybean) effect on crop grade (soybean [6]; [7]): 0 (Herbicidal ratio of 5% or lower (almost no effect))

Structure (SMILES): CON=C(CC1CC(O)=C(c2c(C)cc(Br)cc2C)C1=O)C(C)C (stereo not drawn) [9-001]
- e: wheat, effect on crop grade (wheat): 0 (Herbicidal ratio of 5% or lower (almost no effect))
- b: directly sowed rice plant, effect on crop grade (rice plant): 3 (Herbicidal ratio of 40% or higher and lower than 70%)
- Effect on crop grade, g: rapeseed (rapeseed; [7]): 0 (Herbicidal ratio of 5% or lower (almost no effect))
- Herbicidal effect grade, A: Echinochloa oryzacola Vasing. [1]: 4 (Herbicidal ratio of 70% or higher and lower than 90%)
- Herbicidal effect grade, C: Monochoria vaginalis (Monochoria vaginalis): 0 (Herbicidal ratio of 5% or lower (almost no effect))
- I: Avena fatua, herbicidal effect grade (Avena fatua): 5 (Herbicidal ratio of 90% or more (almost completely withered))
- Herbicidal effect grade, B: Scirpus juncoides (Scirpus juncoides [2]): 0 (Herbicidal ratio of 5% or lower (almost no effect))
- H (Echinochloa crus-galli var. crus-galli) herbicidal effect grade ([3]; Table 24): 5 (Herbicidal ratio of 90% or more (almost completely withered))
- Herbicidal effect grade, B: Scirpus juncoides (Scirpus juncoides [4]): 0 (Herbicidal ratio of 5% or lower (almost no effect))
- d: soybean, effect on crop grade (soybean [5]): 0 (Herbicidal ratio of 5% or lower (almost no effect))
- Herbicidal effect grade, N: Amaranthus retroflexus (Amaranthus retroflexus; [7]): 1 (Herbicidal ratio of 5% or higher and lower than 20%)
- Effect on crop grade, d: soybean (soybean [6]; [7]): 0 (Herbicidal ratio of 5% or lower (almost no effect))

From patent US11000033B2, “Ketone or oxime compound, and herbicide” (NISSAN CHEMICAL CORPORATION, priority 2014, dated 2021)
